In patent US20240316047A1, “INHIBITORS OF RNA HELICASE DHX9 AND USES THEREOF” (ACCENT THERAPEUTICS, INC., priority 2022, published 2024):

Biological target: Human recombinant DHX9 protein (Homo sapiens (Human), UniProt Q08211)
Test: DHX9 ATPase assay (ADP-Glo)
Type: biochemical
Settings: for IC50: read-out: DHX9 Biochemical Inflection Point

Sequence of Human recombinant DHX9 protein (Q08211 whole entry): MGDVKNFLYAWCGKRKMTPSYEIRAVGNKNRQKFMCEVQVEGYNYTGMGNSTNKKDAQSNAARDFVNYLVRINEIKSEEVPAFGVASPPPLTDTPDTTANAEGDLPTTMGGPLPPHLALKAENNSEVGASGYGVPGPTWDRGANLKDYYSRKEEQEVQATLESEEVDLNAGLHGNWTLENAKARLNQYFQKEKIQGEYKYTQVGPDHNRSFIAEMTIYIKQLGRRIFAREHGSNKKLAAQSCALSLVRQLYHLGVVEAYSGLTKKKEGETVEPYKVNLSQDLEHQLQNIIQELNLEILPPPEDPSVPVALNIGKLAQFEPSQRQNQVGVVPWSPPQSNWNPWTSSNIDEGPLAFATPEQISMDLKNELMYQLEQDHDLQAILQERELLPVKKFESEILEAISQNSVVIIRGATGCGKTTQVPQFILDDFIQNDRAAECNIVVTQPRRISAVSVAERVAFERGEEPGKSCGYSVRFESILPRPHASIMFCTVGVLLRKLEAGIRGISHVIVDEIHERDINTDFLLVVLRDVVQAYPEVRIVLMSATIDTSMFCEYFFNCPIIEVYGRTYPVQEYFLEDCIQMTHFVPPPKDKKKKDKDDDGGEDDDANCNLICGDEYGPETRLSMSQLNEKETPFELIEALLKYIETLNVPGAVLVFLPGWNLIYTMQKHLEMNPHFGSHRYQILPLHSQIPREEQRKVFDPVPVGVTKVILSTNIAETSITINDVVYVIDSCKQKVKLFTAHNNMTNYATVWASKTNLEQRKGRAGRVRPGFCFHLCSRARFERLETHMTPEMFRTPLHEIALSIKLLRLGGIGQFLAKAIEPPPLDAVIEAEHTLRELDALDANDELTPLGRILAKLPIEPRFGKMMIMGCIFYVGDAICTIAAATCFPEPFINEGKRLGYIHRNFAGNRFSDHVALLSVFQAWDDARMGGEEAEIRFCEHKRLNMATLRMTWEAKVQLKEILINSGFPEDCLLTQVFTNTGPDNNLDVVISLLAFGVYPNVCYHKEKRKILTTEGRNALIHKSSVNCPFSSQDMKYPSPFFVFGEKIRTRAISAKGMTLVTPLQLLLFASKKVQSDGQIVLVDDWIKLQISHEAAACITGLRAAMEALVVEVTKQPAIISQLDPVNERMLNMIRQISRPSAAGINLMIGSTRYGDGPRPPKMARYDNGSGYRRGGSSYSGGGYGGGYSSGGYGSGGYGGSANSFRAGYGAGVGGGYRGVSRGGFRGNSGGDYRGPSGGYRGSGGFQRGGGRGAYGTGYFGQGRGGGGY

Row | SMILES | DHX9 Biochemical Max Inhibition | IC50 [nM]
1 | Cn1cc(C(=O)Nc2cc(Cl)cc(NS(C)(=O)=O)c2)cc1-c1ccc(C(F)(F)F)cn1 [Example 569] | 75.9 | 55.6
2 | CS(=O)(=O)Nc1cc(Cl)cc(NC(=O)c2cc(-c3ncccc3COc3cc(F)cc(F)c3)cs2)c1 [Example 228] | 67.2% | 65.5
3 | CCOc1cnc(-c2cc(C(=O)Nc3cc(Cl)cc(NS(C)(=O)=O)c3)sc2C)nc1 [Example 335] | 79% | 10.7
4 | CS(=O)(=O)Nc1cc(Cl)cc(NC(=O)c2cc(-c3ccccc3OCc3ccccc3)cs2)c1 [Example 111] | 68.2% | 250
5 | CS(=O)(=O)Nc1cc(Cl)cc(NC(=O)c2cnn(C3CCCC3OCc3ccccc3)c2)c1 (stereo not shown) [Example 424] | 81.7 | 5.1
6 | CS(=O)(=O)Nc1cc(Cl)cc(NC(=O)c2cc3c(C(F)(F)F)cccc3s2)c1 [Example 323] | 58.2% | 282
7 | Cn1cc(C(=O)Nc2cc(Cl)cc(NS(C)(=O)=O)c2)cc1-c1ncc(OC2CN(CC(F)(F)F)C2)cc1F [Example 615] | 73.9 | 52.6
8 | COc1cnc(-c2cc(C(=O)Nc3cc(Cl)cc(NS(C)(=O)=O)c3)cn2CC(F)(F)F)nc1 [Example 563] | 66.9 | 71.3
9 | CS(=O)(=O)Nc1cc(Cl)cc(NC(=O)c2cc(Br)cs2)c1 [Example 241] | 63.8% | 115
10 | CS(=O)(=O)Nc1cc(Cl)cc(NC(=O)c2cnn(-c3ccccc3Oc3cccc(F)c3)c2)c1 [Example 265] | 51.8% | 8050
11 | CS(=O)(=O)Nc1cc(F)cc(NC(=O)c2c[nH]c(Br)c2)c1 [Example 2] | 64.8% | 173
12 | CS(=O)(=O)Nc1cc(Cl)cc(NC(=O)c2cc3ccc(Cl)cn3c2)c1 [Example 299] | 56.7% | 335
13 | COc1cnc(-c2cc(C(=O)Nc3cc(Cl)cc(NS(C)(=O)=O)c3)sc2C)c(F)c1 [Example 358] | 84.3% | 38.4
14 | Cc1sc(C(=O)Nc2cc(Cl)cc(NS(C)(=O)=O)c2)cc1-c1c(F)cccc1OCc1ccccc1 [Example 240] | 71% | 353
15 | CNC(=O)c1sc(C(=O)Nc2cc(Cl)cc(NS(C)(=O)=O)c2)cc1-c1ncccc1OCc1ccccc1 [Example 212] | 72.6% | 5.2
16 | COc1cnc(-c2cc(C(=O)Nc3cc(Cl)cc(NS(C)(=O)=O)c3)cn2C)nc1 [Example 549] | 73.6 | 19
17 | Cn1cc(C(=O)Nc2cc(Cl)cc(NS(C)(=O)=O)c2)cc1-c1ncc(Cl)cn1 [Example 577] | 91.5 | 24.9
18 | CS(=O)(=O)Nc1cc(Br)cc(NC(=O)c2cnn(-c3ccccn3)c2)c1 [Example 36, N-(3-bromo-5-(methylsulfonamido)phenyl)-1-(pyridin-2-yl)-1H-pyrazole-4-carboxamide] | 56.86% | 28
19 | Cn1cc(C(=O)Nc2cc(Cl)cc(NS(C)(=O)=O)c2)cc1-c1ccc(C#N)cn1 [Example 570] | 69.8 | 21.4
20 | CS(=O)(=O)Nc1cc(Br)cc(NC(=O)c2cnn(-c3cc(C#N)ccn3)c2)c1 [Example 38] | 44.7% | 65.5
21 | Cc1sc(C(=O)Nc2cc(Cl)cc(NS(C)(=O)=O)c2)nc1-c1ccc(F)cn1 [Example 716] | 55.9 | 128
22 | Cc1sc(C(=O)Nc2cc(Cl)cc(NS(C)(=O)=O)c2)cc1-c1ncc(C#N)cc1F [Example 375] | 64.6% | 34.6
23 | CCS(=O)(=O)Nc1cc(Cl)cc(NC(=O)c2cc(-c3ncccc3C)cs2)c1 [Example 224] | 67.3% | 6.4
24 | CCS(=O)(=O)Nc1cc(Cl)cc(NC(=O)c2cc(-c3ncc(F)cc3Cl)c(C)s2)c1 [Example 355] | 69.9% | 34.1
25 | CS(=O)(=O)Nc1cc(Cl)cc(NC(=O)c2cnn(-c3cc(N4CCNCC4)ccn3)c2)c1 [Example 147] | 76.5% | 6.3
26 | CN1CC[C@H](Oc2cnc(-c3cc(C(=O)Nc4cc(Cl)cc(NS(C)(=O)=O)c4)cn3C)c(F)c2)C1 [Example 639, N-(3-chloro-5-methanesulfonamidophenyl)-5-(3-fluoro-5-{[(3S)-1-methylpyrrolidin-3-yl]oxy}pyridin-2-yl)-1-methylpyrrole-3-carboxamide] | 59.7 | 7.7
27 | Cc1sc(C(=O)Nc2cc(Cl)cc(NS(C)(=O)=O)c2)cc1-c1ncc(N2CCC(F)(F)C2)cn1 [Example 479] | 69.6 | 17.5
28 | Cc1sc(C(=O)Nc2cc(Cl)cc(NS(C)(=O)=O)c2)cc1-c1ncc(OC(C)C)cn1 [Example 541, N-(3-chloro-5-(methylsulfonamido)phenyl)-4-(5-isopropoxypyrimidin-2-yl)-5-methylthiophene-2-carboxamide] | 74.1 | 15.1

Row | SMILES | DHX9 Biochemical Max Inhibition | IC50 [nM]
29 | CCS(=O)(=O)Nc1cc(Cl)cc(NC(=O)c2cc(-c3ncc(C)cc3F)n(C)c2)c1 [Example 548] | 64.6 | 27.3
30 | CN(C)C(=O)Cc1cccnc1-c1csc(C(=O)Nc2cc(Cl)cc(NS(C)(=O)=O)c2)c1 [Example 221] | 78.3% | 6.6
31 | COc1ccc(F)c(-c2cc(C(=O)Nc3cc(Cl)cc(NS(C)(=O)=O)c3)cn2C)n1 [Example 703] | 53.6 | 44.4
32 | Cc1cc(C(=O)Nc2cc(Cl)cc(NS(C)(=O)=O)c2)cn1-c1ncc(N2CCC2)cn1 [Example 398] | 65.9 | 8.8
33 | COc1cc(C(F)(F)F)cnc1-c1cc(C(=O)Nc2cc(Cl)cc(NS(C)(=O)=O)c2)sc1C [Example 550] | 99.8 | 25
34 | Cc1cccnc1-c1csc(C(=O)Nc2cc(Cl)cc(NS(=O)(=O)C(C)C)c2)c1 [Example 373] | 49.9% | –
35 | CS(=O)(=O)Nc1cc(Cl)cc(NC(=O)c2cnn(-c3ccccn3)c2)c1 [Example 37] | 62.6% | 47.9
36 | CS(=O)(=O)Nc1cc(Cl)cc(NC(=O)c2cnn(-c3ccc(N4CC5CCC(C4)O5)cn3)c2)c1 [Example 191] | 67.6% | 4.2
37 | CS(=O)(=O)Nc1cc(Cl)cc(NC(=O)c2cc(-c3ncc(N4CC(F)(F)C4)cn3)cs2)c1 [Example 486] | 61.7 | 17.9
38 | Cn1cc(C(=O)Nc2cc(Cl)cc(NS(C)(=O)=O)c2)cc1-c1ncc(F)cc1OCc1cnco1 [Example 268] | 73.1% | 9.4
39 | Cc1sc(C(=O)Nc2cc(Cl)cc(NS(C)(=O)=O)c2)cc1-c1ncc(C(C)(O)C2CN(C)C2)cc1F (stereo not shown) [Example 653] | 75.7 | 2
40 | CS(=O)(=O)Nc1cc(Br)cc(NC(=O)c2cc(-c3ccccn3)n(CC#N)c2)c1 [Example 95, N-(3-bromo-5-methanesulfonamidophenyl)-1-(cyanomethyl)-5-(pyridin-2-yl)-1H-pyrrole-3-carboxamide] | 59.2% | 20.5
41 | Cc1sc(C(=O)Nc2cc(Cl)cc(NS(C)(=O)=O)c2)cc1-c1ncc(C(F)(F)F)cc1F [Example 368] | 67.3% | 118
42 | Cc1sc(C(=O)Nc2cc(Cl)cc(NS(C)(=O)=O)c2)cc1-c1ncc(C2(F)COC2)cn1 [Example 680] | 95 | 3
43 | CCS(=O)(=O)Nc1cc(Cl)cc(NC(=O)c2cc(-c3ccc(F)cn3)c(C)s2)c1 [Example 346] | 73% | 25.7
44 | Cn1cc(C(=O)Nc2cc(Cl)cc(NS(C)(=O)=O)c2)cc1-c1ncc(N2CCC3(CC2)COC3)cc1F [Example 475] | 64.7 | 13.6
45 | COCc1ccc(-n2cc(C(=O)Nc3cc(Cl)cc(NS(C)(=O)=O)c3)cc2C)nc1 [Example 447] | 74.9 | 9
46 | Cc1sc(C(=O)Nc2cc(Cl)cc(NS(C)(=O)=O)c2)cc1-c1ncc(OC(C)(C)CO)cn1 [Example 678] | 71.3 | 5.7
47 | Cn1cc(C(=O)Nc2cc(Cl)cc(NS(C)(=O)=O)c2)cc1-c1ncc(N2CC(F)(F)C2)cc1F [Example 599] | 88.7 | 19.2
48 | Cc1sc(C(=O)Nc2cc(Cl)cc(NS(C)(=O)=O)c2)cc1-n1cc(F)cn1 [Example 439] | 61.5 | 18.7
49 | CS(=O)(=O)Nc1cc(Cl)cc(NC(=O)c2cc3cccc(F)c3s2)c1 [Example 297] | 57% | 997
50 | Cc1sc(C(=O)Nc2cc(Cl)cc(NS(C)(=O)=O)c2)cc1-c1ncc(OC2CNC2)cc1F [Example 637] | 71.4 | 3.4
51 | Cc1cc(C(=O)Nc2cc(Cl)cc(NS(C)(=O)=O)c2)cn1-c1ccc(N2CCC2)cn1 [Example 397] | 77.2 | 10.2
52 | Cn1cc(C(=O)Nc2cc(Cl)cc(NS(C)(=O)=O)c2)cc1-c1ncc(N2CCC(F)(F)C2)cn1 [Example 526] | 61.7 | 17.4
53 | CS(=O)(=O)Nc1cc(Br)cc(NC(=O)c2cnn(-c3ncccc3N)c2)c1 [Example 162, 1-(3-aminopyridin-2-yl)-N-(3-bromo-5-(methylsulfonamido)phenyl)-1H-pyrazole-4-carboxamide] | 60.5% | 19.7
54 | Cc1sc(C(=O)Nc2cc(Cl)cc(NS(C)(=O)=O)c2)cc1-c1c(F)cc(F)cc1F [Example 378] | 80.9% | 874
55 | CCS(=O)(=O)Nc1cc(Cl)cc(NC(=O)c2cc(-c3ncc(OC(C)(C)C)cn3)c(C)s2)c1 [Example 566] | 66 | 186
